{"source": "patent US20210330741A1", "about": "“POLYPEPTIDE THERAPEUTICS AND USES THEREOF” (BOARD OF REGENTS, THE UNIVERSITY OF TEXAS SYSTEM, priority 2015, published 2021)", "type": "physicochemical", "description": "Formulation preparation—Lyophilized cake of the CSP 7 mer was prepared using lyophilization. Five hundred μg/mL of the CSP 7 mer solution was prepared as follows: the peptide powder was dissolved in DPBS with minimal volume of ammonium hydroxide (pH 7-8) and 1.5% w/v of mannitol was added in to the solution. The solution was sterile filtered using 0.2 μm SFCA sterile syringe filter (Corning Inc., Corning, N.Y.). Effect of filtration was also tested. One milliliter of the filtrate was filled into a borosilicate glass vial and lyophilized using a VirTis Advantage Lyophilizer (VirTis Company Inc., Gardiner, N.Y.). Lyophilization cycle parameters were set as outlined in Table 2. Primary drying time was varied by number of samples. Nebulization study of the CSP 7 mer peptide—Lyophilized peptide was reconstituted with sterile water for injection (500 μg/mL). […] The condensate of each sample was collected in a polypropylene tube and kept at 5° C. until analyzed. The amount of peptide in each sample was analyzed using high performance liquid chromatography (HPLC) and the degradation products was detected using liquid chromatography mass spectroscopy (LC/MS). Chromatographic conditions—Samples were analyzed using a Dionex 3000 high performance liquid chromatography (HPLC) system (Thermo Fisher Scientific, Fair Lawn, N.J.) with a wavelength of 220 nm. […]", "note": "Where no end group is shown, it is not given here."}
{"substance": "FTTFTVT [CSP-7, FTTFTVT]", "values": [{"measurement": "percent recovery of the peptide (chemical assay, % of peptide remaining)", "result": "did not have an influence"}]}
